According to US20240216900A1, “SABRE CATALYSTS CONTAINING FLUORINATED CARBON CHAINS FOR DELIVERY OF METAL-FREE MRI CONTRAST AGENTS” (The U.S.A., as represented by the Secretary, Department of …, priority 2022, published 2024):

Assay: Relaxation dynamics of hyperpolarized [1-13C]pyruvate (build-up time Tb and T1)
Details: 0.4 μT
Excerpt: In addition, the relaxation dynamics of the [1-^13C]pyruvate were also studied.
In addition, relaxation dynamics at earth field and 1.8 T are about the same as a non-fluorinated SABRE catalyst T1=28.9±1.6 s and 66.5±7 s, respectively.

CC(=O)C(=O)O [[1-^13C]pyruvate, sodium [1-^13C]pyruvate]
total P13C (bound+free) build-up time Tb (Example 7: Example 4 catalyst, DMSO, methanol): 6.6 ± 3.0 s
total P13C (bound+free) build-up time Tb (Example 25: Example 4 catalyst, DMSO, NFBME/MeOD fluorous mixture): 3.0 ± 0.8 s
total P13C (bound+free) build-up time Tb (Example 31: Example 4 catalyst, DMSO, CD3OD/Novec 7100): 3.8 ± 0.6 s
total P13C (bound+free) build-up time Tb (Example 32: Example 4 catalyst, PTMSO, CD3OD/Novec 7100): 8.9 ± 2.5 s
